## CC(C)(C)C(=O)C(Oc1ccc(Cl)cc1)n1ccnc1 (centres undefined)
In ethanol, 278.15 K
  solubility (mole fraction): 0.0801
In ethanol, 283.15 K
  solubility (mole fraction): 0.0952
In ethanol, 288.15 K
  solubility (mole fraction): 0.112
In ethanol, 293.15 K
  solubility (mole fraction): 0.133
In ethanol, 298.15 K
  solubility (mole fraction): 0.159
In ethanol, 303.15 K
  solubility (mole fraction): 0.184
In ethanol, 308.15 K
  solubility (mole fraction): 0.215
In ethanol, 313.15 K
  solubility (mole fraction): 0.249
In ethanol, 318.15 K
  solubility (mole fraction): 0.287
In n-butanol, 278.15 K
  solubility (mole fraction): 0.0804
In n-butanol, 283.15 K
  solubility (mole fraction): 0.0957
In n-butanol, 288.15 K
  solubility (mole fraction): 0.112
In n-butanol, 293.15 K
  solubility (mole fraction): 0.132
In n-butanol, 298.15 K
  solubility (mole fraction): 0.156
In n-butanol, 303.15 K
  solubility (mole fraction): 0.18
In n-butanol, 308.15 K
  solubility (mole fraction): 0.209
In n-butanol, 313.15 K
  solubility (mole fraction): 0.243
In n-butanol, 318.15 K
  solubility (mole fraction): 0.282
In n-heptanol, 278.15 K
  solubility (mole fraction): 0.0686
In n-heptanol, 283.15 K
  solubility (mole fraction): 0.0797
In n-heptanol, 288.15 K
  solubility (mole fraction): 0.0937
In n-heptanol, 293.15 K
  solubility (mole fraction): 0.111
In n-heptanol, 298.15 K
  solubility (mole fraction): 0.131
In n-heptanol, 303.15 K
  solubility (mole fraction): 0.152
In n-heptanol, 308.15 K
  solubility (mole fraction): 0.18
In n-heptanol, 313.15 K
  solubility (mole fraction): 0.21
In n-heptanol, 318.15 K
  solubility (mole fraction): 0.245
In n-hexanol, 278.15 K
  solubility (mole fraction): 0.073
In n-hexanol, 283.15 K
  solubility (mole fraction): 0.0858
In n-hexanol, 288.15 K
  solubility (mole fraction): 0.0999
In n-hexanol, 293.15 K
  solubility (mole fraction): 0.119
In n-hexanol, 298.15 K
  solubility (mole fraction): 0.141
In n-hexanol, 303.15 K
  solubility (mole fraction): 0.164
In n-hexanol, 308.15 K
  solubility (mole fraction): 0.192
In n-hexanol, 313.15 K
  solubility (mole fraction): 0.223
In n-hexanol, 318.15 K
  solubility (mole fraction): 0.263
In n-pentanol, 278.15 K
  solubility (mole fraction): 0.0781
In n-pentanol, 283.15 K
  solubility (mole fraction): 0.0912
In n-pentanol, 288.15 K
  solubility (mole fraction): 0.107
In n-pentanol, 293.15 K
  solubility (mole fraction): 0.127
In n-pentanol, 298.15 K
  solubility (mole fraction): 0.15
In n-pentanol, 303.15 K
  solubility (mole fraction): 0.174
In n-pentanol, 308.15 K
  solubility (mole fraction): 0.204
In n-pentanol, 313.15 K
  solubility (mole fraction): 0.238
In n-pentanol, 318.15 K
  solubility (mole fraction): 0.273
In n-propanol, 278.15 K
  solubility (mole fraction): 0.0842
In n-propanol, 283.15 K
  solubility (mole fraction): 0.0998
In n-propanol, 288.15 K
  solubility (mole fraction): 0.117
In n-propanol, 293.15 K
  solubility (mole fraction): 0.139
In n-propanol, 298.15 K
  solubility (mole fraction): 0.165
In n-propanol, 303.15 K
  solubility (mole fraction): 0.19
In n-propanol, 308.15 K
  solubility (mole fraction): 0.22
In n-propanol, 313.15 K
  solubility (mole fraction): 0.254
In n-propanol, 318.15 K
  solubility (mole fraction): 0.29

From BigSolDB 2.1
